Values quoted from earlier work, collected in patent US5362498A, “Process for preparing a bioadhesive pharmaceutical dosage form and pharmaceutical dosage form thus prepared” (priority 1990, dated 1994).

Settings: metabolite produced by digestive tract absorption of morphinic active principles

CN1CC[C@]23c4c5ccc(O)c4O[C@H]2[C@@H](O[C@@H]2O[C@H](C(=O)O)[C@@H](O)[C@H](O)[C@H]2O)C=C[C@H]3[C@H]1C5 [morphine 6-glucuronide]
relative potency: 1.5 times
